As a reminder, the IC50 is the concentration needed to halve the response being measured.

The source of these data is patent US20110294766A1, “16 Alpha, 17 Alpha-Acetal Glucocorticosteroidal Derivatives and their Use” (AstraZeneca AB, priority 2008, published 2011).

The target of this assay is T1, recombinant human GR (Homo sapiens, UniProt P04150).
T1 construct: purchased Panvera/Invitrogen P2812 (kit P2893)
T1 sequence (P04150 1-777): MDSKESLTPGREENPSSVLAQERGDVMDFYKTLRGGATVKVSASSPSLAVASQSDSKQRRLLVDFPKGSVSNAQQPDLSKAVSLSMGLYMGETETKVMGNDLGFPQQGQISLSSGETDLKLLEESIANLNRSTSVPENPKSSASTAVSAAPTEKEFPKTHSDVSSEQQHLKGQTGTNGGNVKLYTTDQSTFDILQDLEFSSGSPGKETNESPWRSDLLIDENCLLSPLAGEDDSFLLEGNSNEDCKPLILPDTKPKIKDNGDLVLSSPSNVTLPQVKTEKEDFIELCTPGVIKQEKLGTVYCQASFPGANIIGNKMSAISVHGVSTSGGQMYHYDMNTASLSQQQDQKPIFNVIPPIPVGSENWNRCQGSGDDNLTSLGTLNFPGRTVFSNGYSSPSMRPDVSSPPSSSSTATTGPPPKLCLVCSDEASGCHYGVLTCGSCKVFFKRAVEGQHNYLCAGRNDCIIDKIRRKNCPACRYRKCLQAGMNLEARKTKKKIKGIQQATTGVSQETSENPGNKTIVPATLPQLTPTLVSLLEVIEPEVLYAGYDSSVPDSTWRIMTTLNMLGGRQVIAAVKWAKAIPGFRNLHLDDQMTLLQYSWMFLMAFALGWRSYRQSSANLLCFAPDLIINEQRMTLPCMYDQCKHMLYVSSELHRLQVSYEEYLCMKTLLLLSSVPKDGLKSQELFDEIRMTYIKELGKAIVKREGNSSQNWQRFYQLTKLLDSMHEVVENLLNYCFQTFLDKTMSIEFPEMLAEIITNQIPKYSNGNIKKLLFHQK
As to the kind of experiment: Human Glucocorticoid Receptor (GR) Assay (fluorescence polarization, Panvera/Invitrogen kit). As to conditions: GS Red tracer, 2 hours at room temperature, 100% control 10 μM Dexamethasone, read-out: Inhibition of GR binding, IC50. The method in brief:
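Fluorescence polarization competition binding of compounds against Fluoromone GS Red tracer on recombinant human GR, in buffer of potassium phosphate, sodium molybdate, EDTA, DMSO with stabilizing peptide and DTT. Incubated 2 h at room temperature in the dark; read at ex 530/em 590 nm. Controls: DMSO (0%), 10 μM dexamethasone (100%).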
(In fluorescence polarisation assays a small probe gives low polarisation when free and higher when bound to something large.)
Turning to `Cc1ccc([C@H]2O[C@@H]3C[C@H]4[C@@H]5C[C@H](F)C6=CC(=O)C=C[C@]6(C)[C@@]5(F)[C@@H](O)C[C@]4(C)[C@]3(C(=O)SCF)O2)o1` [Example 7, S-(Fluoromethyl)(4aS,4bR,5S,6aS,6bS,8S,9aR,10aS,10bS,12S)-4b,12-difluoro-5-hydroxy-4a,6a-dimethyl-8-(5-methyl-2-furyl)-2-oxo-2,4a,4b,5,6,6a,9a,10,10a,10b,11,12-dodecahydro-6bH-naphtho[2′,1′:4,5]indeno[1,2-d][1,3]dioxole-6b-carbothioate], the IC50 came out at 1 nM.

Regarding `C[C@]12C=CC(=O)C=C1CC[C@@H]1[C@@H]2[C@@H](O)C[C@@]2(C)[C@H]1C[C@H]1OC(c3ccc(C(F)(F)F)cc3)O[C@]12C(=O)SCC#N` (stereo partly drawn) [Example 39, S-(Cyanomethyl)(4aR,4bS,5S,6aS,6bS,9aR,10aS,10bS)-5-hydroxy-4a,6a-dimethyl-2-oxo-8-[4-(trifluoromethyl)phenyl]-2,4a,4b,5,6,6a,9a,10,10a,10,11,12-dodecahydro-6bH-naphtho[2′,1′:4,5]indeno[1,2-d][1,3]dioxole-6b-carbothioate], the IC50 stood at 2.8 nM.

For the compound `Cc1ccc(C2O[C@@H]3C[C@H]4[C@@H]5CCC6=CC(=O)C=C[C@]6(C)[C@H]5[C@@H](O)C[C@]4(C)[C@]3(C(=O)SCC#N)O2)c(C)c1` (stereo partly drawn) [Example 36, S-(Cyanomethyl)(4aR,4bS,5S,6aS,6bS,9aR,10aS,10bS)-8-(2,4-dimethylphenyl)-5-hydroxy-4a,6a-dimethyl-2-oxo-2,4a,4b,5,6,6a,9a,10,10a,10,11,12-dodecahydro-6bH-naphtho[2′,1′:4,5]indeno[1,2-d][1,3]dioxole-6b-carbothioate], the IC50 worked out at 2.7 nM.
